“And” between values parts separate entries of the source, which are not always exact repeats. Equal entries are not always repeated. Where two headings read alike, the source gives them in different places.
Tests used:
[1] = type: in vivo; conditions: dog NOAEL 30 mg/kg, human 10 mg BID
[2] = type: in vivo; conditions: rat NOAEL 300 mg/kg, human 10 mg BID
[3] = Clinical PK crossover study of IR, MR1 and MR2 capsules, single 8 mg dose; type: in vivo, human
From the text: Subjects will be screened for study eligibility within 28 days before administration of the first dose of study drug. Subjects who meet the study eligibility criteria will be admitted to the clinical research unit in the afternoon of the day before administration of the first dose of study drug (Period 1/Day −1).
Treatments A, B, and C will be separated by a minimum 7-day washout period. […] Administration of Treatment D may be separated from administration of Treatments A, B, and C by approximately 4 weeks to allow for analysis of the bioanalytical samples from the first 3 treatments.
A single dose, crossover clinical trial was conducted in 15 subjects ranging in age from 35-75 years.

[4] = following a single 8 mg dose of IR CX-8998
[5] = following a single 8 mg dose of MR1 CX-8998
[6] = following a single 8 mg dose of MR2 CX-8998

## C=C(C)c1ccc(CC(=O)N[C@H](C)c2ccc(OCC(F)(F)F)cn2)cc1 [M01]
[1]; Day 90, female
  total safety margin, AUC24hr: 5.6 fold
  total safety margin, Css (animal Cmax / human estimated Css at steady state): 8 fold and 8.0 fold
[1]; Day 90, male
  total safety margin, AUC24hr: 6.5 fold
  total safety margin, Css (animal Cmax / human estimated Css at steady state): 10 fold
[2]; Day 90, female
  total safety margin, AUC24hr: 13 fold
  total safety margin, Css (animal Cmax / human estimated Css at steady state): 21 fold
[2]; Day 90, male
  total safety margin, AUC24hr: 6.8 fold
  total safety margin, Css (animal Cmax / human estimated Css at steady state): 13 fold
[3]; [4]
  AUC72hr Ratio (metabolite to CX-8998): 0.92
  Cmax Ratio (metabolite to CX-8998): 0.14
[3]; [5]
  AUC72hr Ratio (metabolite to CX-8998): 0.95
  Cmax Ratio (metabolite to CX-8998): 0.27
[3]; [6]
  AUC72hr Ratio (metabolite to CX-8998): 0.90
  Cmax Ratio (metabolite to CX-8998): 0.35

From patent US12383539B2 (Cavion, Inc., priority 2018, dated 2025)
